In one experiment the target is BTK (Homo sapiens, UniProt Q06187). In words: Omnia assay for potency against BTK. It is filed as biochemical. The following applies: read-out: BTK Inhibition. In short, it runs like this:
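BTK (5 nM) was pre-incubated 30 min at 27° C with serially diluted compounds in Tris pH 7.5/MgCl2 buffer, then started with […] and Y5-Sox peptide 10 mM (ATP KMapp ~36 mM). Fluorescence (ex360/em485) was read continuously over 60 min. IC50 came from initial velocities using a variable-slope fit.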

For a further experiment, the target named is T1, EGFR (WT) (Homo sapiens, UniProt P00533).
T1 construct: purchased Invitrogen PV3872
Nature of the experiment: Omnia continuous-read kinase assay, EGFR (WT). It is filed as biochemical. The following applies: read-out: EGFR inhibtion. The essentials: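 Enzyme pre-incubated 30 min at 27 °C with compound, then ATP/Y12-Sox peptide added; fluorescence (ex360/em485) read continuously 60 min in 20 mM Tris pH 7.5, 5 mM MgCl2, 0.2 mM DTT. WT: 5 nM enzyme, […]; T790M/L858R: 3 nM enzyme, […]. IC50 from initial velocities, variable-slope fit.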

Experiment [1] relates to BTK signaling in Ramos cells. Nature of the experiment: BTK Ramos cellular assay (PLCγ2 phosphorylation). In kind it is cell-based. The following applies: Homo sapiens; for IC50: Ramos cells, PLCγ2 phosphorylation, read-out: BTK Inhibition.
For the next experiment, the system named is BTK in Ramos cells. In words: Washout experiment with Ramos cells for BTK activity. It is filed as cell-based, human. The following applies: for BTK Inhibition Type: Ramos washout assay, 100 nM compound for 1 hour. The procedure:
Ramos cells were serum starved for one hour in RPMI media+1% glutamine at 37° C. After starvation, Ramos cells were treated with 100 nM compound diluted in serum free RPMI media for 1 hour. After compound treatment, the media was removed and cells were washed with compound-free media. Subsequently, Ramos cells were washed every 2 hours and resuspended in fresh compound-free media. Cells were collected at specified timepoints, treated with 1 ug anti-human IgM (Southern Biotech cat #2022-01) for 10 minutes on ice to induce BCR signaling and then washed in PBS. Ramos cells were then lysed in Cell Extraction Buffer (Invitrogen FNN0011) supplemented with Roche complete protease inhibitor tablets (Roche 11697498001) and phosphatase inhibitors (Roche 04 906 837 001) and 18 ug total protein lysate was loaded in each lane. Inhibition of BTK kinase activity was assayed by measuring its substrate (PLCγ2) phosphorylation by western blot with phospho-specific antibodies from Cell Signaling Technologies cat#3871. FIG. 10 depicts the results of compound I-13 in the washout experiment at 0 hour, 4 hour, 6 hour, and 8 hour time points.

In a further experiment the target is T2, ITK (Homo sapiens, UniProt Q08881).
T2 sequence (Q08881 1-620): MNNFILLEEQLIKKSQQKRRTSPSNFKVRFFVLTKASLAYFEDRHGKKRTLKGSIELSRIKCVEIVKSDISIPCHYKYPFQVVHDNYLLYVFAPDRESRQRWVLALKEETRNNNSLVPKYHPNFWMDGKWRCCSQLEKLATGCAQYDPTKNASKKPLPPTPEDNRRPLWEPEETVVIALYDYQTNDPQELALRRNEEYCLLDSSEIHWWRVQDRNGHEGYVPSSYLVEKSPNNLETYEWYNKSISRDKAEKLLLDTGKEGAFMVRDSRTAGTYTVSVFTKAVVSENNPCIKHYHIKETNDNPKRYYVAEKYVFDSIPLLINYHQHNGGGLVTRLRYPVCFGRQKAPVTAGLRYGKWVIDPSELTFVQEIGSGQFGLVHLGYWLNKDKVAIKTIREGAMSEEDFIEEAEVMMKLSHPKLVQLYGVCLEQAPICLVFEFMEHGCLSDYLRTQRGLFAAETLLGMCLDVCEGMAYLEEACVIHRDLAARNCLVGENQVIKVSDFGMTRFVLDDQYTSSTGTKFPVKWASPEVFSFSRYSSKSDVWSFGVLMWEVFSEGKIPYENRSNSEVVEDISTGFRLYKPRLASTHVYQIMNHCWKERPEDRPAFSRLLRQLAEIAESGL
Nature of the experiment: Omnia assay for potency against ITK. The following applies: read-out: ITK inhibition. In kind it is biochemical. An excerpt: The protocol below describes continuous-read kinase assays to measure inherent potency of compounds against active forms of EGFR (WT) and EGFR (T790M/L858R) enzymes. The mechanics of the assay platform are best described by the vendor (Invitrogen, Carlsbad, Calif.) on their website at the following URL: http://www.invitrogen.com/content.cfm?pageid=11338 or http://www.invitrogen.com/site/us/en/home/Products-and-Services/Applications/Drug-Discovery/Target-and-Lead-Identification-and-Validation/KinaseBiology/KB-Misc/Biochemical-Assays/Omnia-Kinase-Assays.html.
Briefly, 10× stocks of EGFR-WT (PV3872) from Invitrogen and EGFR-T790M/L858R (40350) from BPS Bioscience, San Diego, Calif., 1.13×ATP (AS001A) and appropriate Tyr-Sox conjugated peptide substrates (KCZI001) were prepared in 1× kinase reaction buffer consisting of 20 mM Tris, pH 7.5, 5 mM MgCl2, 1 mM EGTA, 5 mM β-glycerophosphate, 5% glycerol (10× stock, KB002A) and 0.2 mM DTT (DS001A). 5 μL of each enzyme were pre-incubated in a Corning (#3574) 384-well, white, non-binding surface microtiter plate (Corning, NY) for 30 min. at 27° C. with a 0.5 μL volume of 50% DMSO and serially diluted compounds prepared in 50% DMSO. Kinase reactions were started with the addition of 45 μL of the ATP/Tyr-Sox peptide substrate mix and monitored every 30-90 seconds for 60 minutes at λex360/λem485 in a Synergy^4 plate reader from BioTek (Winooski, Vt.). At the conclusion of each assay, progress curves from each well were examined for linear reaction kinetics and fit statistics (R^2, 95% confidence interval, absolute sum of squares). Initial velocity (0 minutes to ˜30 minutes) from each reaction was determined from the slope of a plot of relative fluorescence units vs time (minutes) and then plotted against inhibitor concentration to estimate IC50 from log [Inhibitor] vs Response, Variable Slope model in GraphPad Prism from GraphPad Software (San Diego, Calif.).
This example describes continuous-read kinase assays to measure inherent potency of compound against active forms of ITK enzymes as described in Example 10 above except that the modified ITK-optimized reagent conditions are: • [ITK]=10 nM, [ATP]=25 μM, [Y6-Sox]=10 μM (ATP KMapp=33 μM).

BTK, sequence (Q06187 whole entry): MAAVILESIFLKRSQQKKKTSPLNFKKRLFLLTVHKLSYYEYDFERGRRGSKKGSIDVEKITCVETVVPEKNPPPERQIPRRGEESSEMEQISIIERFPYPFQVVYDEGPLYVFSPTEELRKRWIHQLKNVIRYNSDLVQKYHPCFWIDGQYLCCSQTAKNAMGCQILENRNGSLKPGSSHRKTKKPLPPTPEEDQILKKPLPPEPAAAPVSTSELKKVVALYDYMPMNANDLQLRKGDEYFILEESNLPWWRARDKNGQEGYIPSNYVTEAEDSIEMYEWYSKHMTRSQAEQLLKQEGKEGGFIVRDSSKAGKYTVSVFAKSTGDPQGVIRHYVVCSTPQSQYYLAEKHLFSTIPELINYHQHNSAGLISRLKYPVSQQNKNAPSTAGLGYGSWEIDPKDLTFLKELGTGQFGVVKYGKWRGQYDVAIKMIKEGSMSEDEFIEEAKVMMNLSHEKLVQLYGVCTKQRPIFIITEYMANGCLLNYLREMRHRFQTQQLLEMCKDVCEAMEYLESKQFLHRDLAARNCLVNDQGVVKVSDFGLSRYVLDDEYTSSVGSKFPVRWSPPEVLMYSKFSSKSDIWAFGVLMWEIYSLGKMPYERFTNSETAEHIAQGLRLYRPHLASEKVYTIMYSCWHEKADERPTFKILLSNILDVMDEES
T1 sequence (P00533 25-1210): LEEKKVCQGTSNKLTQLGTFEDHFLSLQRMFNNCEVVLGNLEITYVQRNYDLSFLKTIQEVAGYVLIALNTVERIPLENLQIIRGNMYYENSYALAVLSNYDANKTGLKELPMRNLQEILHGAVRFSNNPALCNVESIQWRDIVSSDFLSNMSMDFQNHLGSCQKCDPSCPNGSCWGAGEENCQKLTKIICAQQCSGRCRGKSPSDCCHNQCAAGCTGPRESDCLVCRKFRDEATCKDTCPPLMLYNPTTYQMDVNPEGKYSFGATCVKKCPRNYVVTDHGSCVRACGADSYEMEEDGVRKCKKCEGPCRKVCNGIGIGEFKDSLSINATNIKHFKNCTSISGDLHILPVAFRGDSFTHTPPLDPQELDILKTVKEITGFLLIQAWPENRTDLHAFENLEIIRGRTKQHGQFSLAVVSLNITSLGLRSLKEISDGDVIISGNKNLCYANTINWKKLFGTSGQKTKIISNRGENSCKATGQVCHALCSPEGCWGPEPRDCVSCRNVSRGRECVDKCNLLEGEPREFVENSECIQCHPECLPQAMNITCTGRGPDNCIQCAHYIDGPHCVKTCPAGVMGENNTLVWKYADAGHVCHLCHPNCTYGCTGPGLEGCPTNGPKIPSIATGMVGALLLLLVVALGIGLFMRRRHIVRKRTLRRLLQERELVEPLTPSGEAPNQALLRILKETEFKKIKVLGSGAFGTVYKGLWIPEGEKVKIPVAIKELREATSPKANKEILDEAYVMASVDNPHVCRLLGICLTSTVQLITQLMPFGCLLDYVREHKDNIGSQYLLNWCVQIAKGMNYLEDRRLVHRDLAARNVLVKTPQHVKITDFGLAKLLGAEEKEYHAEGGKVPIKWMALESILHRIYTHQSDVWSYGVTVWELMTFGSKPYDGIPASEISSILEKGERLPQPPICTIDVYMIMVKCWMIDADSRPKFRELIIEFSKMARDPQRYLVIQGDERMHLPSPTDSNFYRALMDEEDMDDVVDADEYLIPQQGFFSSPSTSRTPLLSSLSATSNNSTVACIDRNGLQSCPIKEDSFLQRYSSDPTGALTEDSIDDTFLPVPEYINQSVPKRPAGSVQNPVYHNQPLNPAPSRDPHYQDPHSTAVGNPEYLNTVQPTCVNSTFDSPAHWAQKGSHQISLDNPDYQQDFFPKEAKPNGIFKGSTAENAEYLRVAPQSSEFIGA

For `C=CC(=O)Nc1cccc(Nc2cc(Nc3cccc(Br)c3)ncn2)c1` [I-1, N-{3-[6-(3-bromophenylamino)-pyrimidin-4-ylamino]-phenyl}-2-propenamide], the IC50 was 10 to 100 nM at BTK and at most 10 nM on EGFR (WT).
The term inhibition denotes the share of the control response that was lost under treatment. `C=CC(=O)Nc1cccc(Nc2cc(Nc3ccc(Oc4ccccc4)cc3)ncn2)c1` [I-13, N-{3-[6-(4-phenoxyphenylamino)-pyrimidin-4-ylamino]phenyl}-2 propenamide]: in experiment [1] (Ramos, at 1 μM, 1 hour), the inhibition at 1 µM was determined as 85%. In addition, the IC50 is 10 to 100 nM in experiment [1], at most 10 nM on BTK, 1000 to 10000 nM on ITK and at most 10 nM at EGFR (WT). Also, the “inhibition of BTK after washout over time” value in the experiment with BTK in Ramos cells (Ramos cells, 100 nM, 0, 4, 6 and 8 hour time points) is listed as “maintains inhibition of BTK for 8 hours”. For the same molecule, the “BTK Inhibition Type” value in the experiment with BTK in Ramos cells is reported as “irreversible”.
As for `C=CC(=O)Nc1cccc(Nc2cc(Nc3ccc(Oc4ccccc4)cc3)ncn2)n1` [I-63], the IC50 in experiment [1] is at most 10 nM; at BTK, at most 10 nM; at ITK, 1000 to 10000 nM; on EGFR (WT) it was at most 10 nM. For the same molecule, the “BTK Inhibition Type” value with BTK in Ramos cells is recorded as “irreversible”.
As for `CN(C)C/C=C/C(=O)Nc1cccc(Nc2cc(Nc3ccc(Oc4ccccc4)cc3)ncn2)n1` [I-64, (E)-4-(dimethylamino)-N-(6-(6-(4-phenoxyphenylamino)pyrimidin-4-ylamino)pyridine-2-yl)but-2-enamide], the IC50 in experiment [1] was 10 to 100 nM; at BTK it was at most 10 nM; at ITK it was 10 to 100 nM. Further, the “BTK Inhibition Type” value in the experiment with BTK in Ramos cells is listed as “irreversible”.
Regarding `C=CC(=O)Nc1cccc(Nc2cc(Oc3cccc(C)c3)ncn2)n1` [I-65], the results for the IC50 at BTK, on ITK and at EGFR (WT) were at most 10 nM, 10 to 100 nM and at most 10 nM, respectively. Moreover, in the experiment on BTK in Ramos cells, the “BTK Inhibition Type” value is “reversible”.
As to `C=CC(=O)Nc1cccc(Nc2cc(Oc3ccc(Oc4ccccc4)cc3)ncn2)n1` [I-66], the IC50 was at most 10 nM at BTK, 1000 to 10000 nM at ITK and at most 10 nM on EGFR (WT). Also, the “BTK Inhibition Type” value in the experiment with BTK in Ramos cells is “irreversible”.
Regarding `C=CC(=O)N(C)c1cccc(Nc2cc(Nc3ccc(Oc4ccccc4)cc3)ncn2)n1` [I-78, N-methyl-N-(6-(6-(4-phenoxyphenylamino)pyrimidin-4-ylamino)pyridin-2-yl)acrylamide], the IC50 in experiment [1] was at most 10 nM; at BTK, at most 10 nM; on ITK it was 10 to 100 nM; at EGFR (WT), at most 10 nM.
As to `CN(C)C/C=C/C(=O)N(C)c1cccc(Nc2cc(Nc3ccc(Oc4ccccc4)cc3)ncn2)n1` [I-79, (E)-4-(dimethylamino)-N-methyl-N-(6-(6-(4-phenoxyphenylamino)pyrimidin-4-ylamino)pyridine-2-yl)but-2-enamide], the IC50 (in experiment [1]; at BTK; at ITK; at EGFR (WT)) was at most 10 nM throughout.
With `Cc1cccc(Oc2cc(Nc3cccc(NC(=O)/C=C/CN(C)C)n3)ncn2)c1` [I-81], the IC50 in experiment [1] is at most 10 nM; on BTK it was at most 10 nM; at ITK, 10 to 100 nM; on EGFR (WT), at most 10 nM.
On to `C=CC(=O)Nc1cccc(Nc2cc(Nc3ccccc3)ncn2)n1` [I-94], for which the values for the IC50 on BTK, on ITK and at EGFR (WT) were at most 10 nM, 10 to 100 nM and at most 10 nM, respectively.
